Target: T1, Androgen receptor (Homo sapiens, UniProt P10275)
T1 sequence (P10275 whole entry): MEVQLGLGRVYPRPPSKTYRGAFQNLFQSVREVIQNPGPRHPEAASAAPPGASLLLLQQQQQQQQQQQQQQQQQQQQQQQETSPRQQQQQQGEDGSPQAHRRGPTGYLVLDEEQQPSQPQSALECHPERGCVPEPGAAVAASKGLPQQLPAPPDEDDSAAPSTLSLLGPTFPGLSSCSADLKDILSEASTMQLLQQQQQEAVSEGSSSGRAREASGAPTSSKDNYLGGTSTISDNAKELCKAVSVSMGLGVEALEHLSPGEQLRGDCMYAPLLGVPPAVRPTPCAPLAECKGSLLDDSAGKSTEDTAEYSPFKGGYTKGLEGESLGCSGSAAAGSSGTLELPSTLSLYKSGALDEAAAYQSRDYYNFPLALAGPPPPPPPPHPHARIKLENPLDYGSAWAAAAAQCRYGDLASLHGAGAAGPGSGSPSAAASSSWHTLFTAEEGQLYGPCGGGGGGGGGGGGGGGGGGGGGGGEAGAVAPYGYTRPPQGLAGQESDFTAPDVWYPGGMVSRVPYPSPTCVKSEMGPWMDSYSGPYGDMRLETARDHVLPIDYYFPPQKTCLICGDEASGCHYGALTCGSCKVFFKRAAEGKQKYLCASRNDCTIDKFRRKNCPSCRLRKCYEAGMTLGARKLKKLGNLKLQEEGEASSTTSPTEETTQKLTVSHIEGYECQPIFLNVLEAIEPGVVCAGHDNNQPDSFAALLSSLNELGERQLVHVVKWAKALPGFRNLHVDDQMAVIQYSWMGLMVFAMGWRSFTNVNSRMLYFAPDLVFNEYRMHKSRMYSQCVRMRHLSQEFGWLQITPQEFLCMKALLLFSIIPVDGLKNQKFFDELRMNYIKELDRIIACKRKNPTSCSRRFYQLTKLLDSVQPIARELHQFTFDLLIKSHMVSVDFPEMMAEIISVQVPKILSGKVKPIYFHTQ
Experiment: The assay was performed as specified by the manufacturer (Invitrogen, Madison, Wis.). Briefly, 1 ul of 10 mM compound was added to 500 ul of AR screening buffer in a 1.5 ml eppendorf tube to make a 2x10-5M stock. 10-fold serial dilutions of the test compounds were prepared ranging in concentration from 10^-5M to 10-12M. Each dilution was added in triplicate to a black 384-microtiter plate. The test compounds will be diluted 2-fold in the final reaction. 2xAR-Fluormone complex was prepared with 2 nM Flourmone AL Green and 30 nM AR. 25 ul of 2x complex was aliquoted to each reaction well, such that the final reaction volume was 50 ul per well. The plate was sealed with a foil cover and incubated in the dark at room temperature.

IC50 [nM]	SMILES
1560	OC1(C(F)(F)F)CCCc2c1[nH]c1cc(Cl)c(Cl)cc21 (stereo unspecified)
40200	OC1(C(F)(F)F)CCCc2c1[nH]c1ccc(Cl)c(Cl)c21 (stereo unspecified)
> 1000	O[C@@]1(C(F)(F)F)CCCc2c1[nH]c1cc(Cl)c(Cl)cc21
13	O[C@]1(C(F)(F)F)CCCc2c1[nH]c1cc(Cl)c(Cl)cc21

Second part, the compound before the results:

SMILES	IC50 [nM]
Oc1cccc2c1[nH]c1ccc(Br)cc12	1420
N#Cc1ccc2[nH]c3c(O)cccc3c2c1	4600
Oc1c(Br)ccc2c1[nH]c1cc(Cl)c(Cl)cc12	34
Oc1cccc2c1[nH]c1ccc(Cl)c(Cl)c12	15
O[C@]1(C(F)(F)F)CCCc2c1[nH]c1c(Cl)cc(Cl)cc21	20
OC1(C(F)(F)F)c2[nH]c3c(Cl)cc(F)cc3c2CCC1C(F)(F)F (stereo unspecified)	> 10000
OC1(C(F)(F)F)CCCc2c1[nH]c1c(Cl)cc(Cl)c(Cl)c21 (stereo unspecified)	> 10000

From ChEMBL document CHEMBL3638724, “Selective androgen receptor modulators” (2015)
